Data reported in ChEMBL document CHEMBL3352358, “Discovery of 2-(cyclohexylmethylamino)pyrimidines as a new class of reversible valosine containing protein inhibitors” (J Med Chem, 2014).

Assays:
[1] = target: Transitional endoplasmic reticulum ATPase (Homo sapiens, UniProt P55072); assay: biochemical; format: cell-based
Description: Inhibition of human full length VCP (2 to 806 residues) expressed in High5 insect cells assessed as reduction in ATPase activity by measuring ADP formation by NADH coupled assay

[2] = Inhibition of cell proliferation of human HCT116 cells after 72 hrs by thermostable firefly luciferase based assay; format: functional, HCT-116
[3] = Homo sapiens, HCT-116, 72 h, read-out: IC50

Transitional endoplasmic reticulum ATPase, sequence (P55072 whole entry): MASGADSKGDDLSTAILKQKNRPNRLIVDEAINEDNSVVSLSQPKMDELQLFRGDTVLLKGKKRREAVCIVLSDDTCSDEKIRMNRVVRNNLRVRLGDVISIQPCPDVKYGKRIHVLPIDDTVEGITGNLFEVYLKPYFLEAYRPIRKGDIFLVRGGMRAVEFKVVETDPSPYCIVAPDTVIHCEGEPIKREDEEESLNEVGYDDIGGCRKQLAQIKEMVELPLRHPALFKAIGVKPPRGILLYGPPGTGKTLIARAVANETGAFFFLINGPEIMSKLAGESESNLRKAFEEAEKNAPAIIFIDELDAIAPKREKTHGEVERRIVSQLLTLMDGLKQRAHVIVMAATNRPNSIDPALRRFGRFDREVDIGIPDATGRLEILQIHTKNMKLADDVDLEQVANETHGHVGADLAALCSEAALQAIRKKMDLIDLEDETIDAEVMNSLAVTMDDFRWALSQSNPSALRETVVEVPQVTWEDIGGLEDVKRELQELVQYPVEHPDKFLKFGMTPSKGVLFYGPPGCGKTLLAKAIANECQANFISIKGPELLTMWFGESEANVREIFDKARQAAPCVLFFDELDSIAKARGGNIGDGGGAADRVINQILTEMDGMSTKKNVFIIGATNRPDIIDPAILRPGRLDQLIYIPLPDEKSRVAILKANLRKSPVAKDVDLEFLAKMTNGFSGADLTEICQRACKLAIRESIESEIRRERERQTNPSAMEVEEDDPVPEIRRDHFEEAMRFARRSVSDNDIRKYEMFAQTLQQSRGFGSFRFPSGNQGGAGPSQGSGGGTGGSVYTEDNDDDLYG

Structure (SMILES)	IC50 [1]	IC50 [2, 3]	IC50 ([2]; hct-116)
COc1cccc(CNc2cc(-c3ccccc3)nc(NC[C@H]3CC[C@H](C(N)=O)CC3)n2)c1	5640 nM		
COc1ccccc1-c1cc(-c2ccccc2)nc(NC[C@H]2CC[C@H](C(=O)O)CC2)n1	3040 nM		
Cc1cccc(-c2cc(-c3ccccc3)nc(NC[C@H]3CC[C@H](C(=O)O)CC3)n2)c1	578 nM		
COc1ccc(-c2cc(C)nc(NC[C@H]3CC[C@H](C(=O)O)CC3)n2)cc1	> 37000 nM		
Cc1ccccc1CNc1cc(-c2ccccc2)nc(NC[C@H]2CC[C@H](C(N)=O)CC2)n1	9290 nM		
O=C(O)[C@H]1CC[C@H](CNc2nc(-c3ccccc3)cc(-c3ccoc3)n2)CC1	2190 nM		
Cc1cc(-c2cccc(Cl)c2)nc(NC[C@H]2CC[C@H](C(=O)O)CC2)n1	4800 nM		
O=C(O)[C@H]1CC[C@H](CNc2nc(NC3CCCCC3)cc(-c3ccccc3)n2)CC1	4310 nM		
O=C(O)[C@H]1CC[C@H](CNc2nc(-c3ccccc3)cc(-c3ccccc3Cl)n2)CC1	700 nM		
Cc1cc(-c2ccccc2)nc(NC[C@H]2CC[C@H](C(=O)O)CC2)n1	2600 nM		
Cc1cc(-c2ccccc2)nc(SCc2ccc(C(=O)O)cc2)n1	4800 nM		
Cc1cc(-c2ccccc2)nc(SCc2ccc(C(=O)NS(=O)(=O)C(F)(F)F)cc2)n1	21600 nM		
NC(=O)[C@H]1CC[C@H](CNc2nc(NCc3ccc(Cl)cc3)cc(-c3ccccc3)n2)CC1	3470 nM		
COC(=O)[C@H]1CC[C@H](CNc2nc(NCc3ccccc3)cc(-c3ccccc3)n2)CC1			Not Active
Cc1cc(-c2ccccc2)nc(SCCc2ccc(C(=O)O)cc2)n1	20500 nM		
Cc1cc(-c2ccccc2)nc(Sc2ccc(C(=O)O)cc2)n1	> 37000 nM		
NC(=O)[C@H]1CC[C@H](CNc2nc(NCc3ccccc3Br)cc(-c3ccccc3)n2)CC1	7110 nM		
Cc1cc(-c2ccccc2)nc(NCc2cccc(C(=O)O)c2)n1	> 37000 nM		
Cc1cc(-c2ccccc2)nc(SCCC(=O)O)n1	> 37000 nM		
NC(=O)[C@H]1CC[C@H](CNc2nc(NCc3ccc(S(N)(=O)=O)cc3)cc(-c3ccccc3)n2)CC1	5170 nM		
CS(=O)(=O)c1ccc(-c2cc(-c3ccccc3)nc(NC[C@H]3CC[C@H](C(=O)O)CC3)n2)cc1	1090 nM		
Cc1ccc(-c2cc(C)nc(NC[C@H]3CC[C@H](C(=O)O)CC3)n2)cc1	2700 nM		
O=C(O)[C@H]1CC[C@H](CNc2nc(-c3ccccc3)cc(-c3ccncc3)n2)CC1	1670 nM		
Cc1ccc(-c2cc(-c3ccccc3)nc(NC[C@H]3CC[C@H](C(=O)O)CC3)n2)cc1	577 nM		
CS(=O)(=O)c1ccc(CNc2cc(-c3ccccc3)nc(NC[C@H]3CC[C@H](C(N)=O)CC3)n2)cc1	> 10000 nM		
O=C(O)[C@H]1CC[C@H](CNc2nc(-c3ccccc3)cc(N3CCOCC3)n2)CC1	> 10000 nM		

Structure (SMILES)	IC50 [1]	IC50 [2, 3]	IC50 ([2]; hct-116)
COc1ccc(-c2cc(-c3ccccc3)nc(NC[C@H]3CC[C@H](C(=O)O)CC3)n2)cc1	921 nM		
NC(=O)[C@H]1CC[C@H](CNc2nc(NCc3cccc([N+](=O)[O-])c3)cc(-c3ccccc3)n2)CC1	4610 nM		
Cc1cccc(-c2cc(C)nc(NC[C@H]3CC[C@H](C(=O)O)CC3)n2)c1	11400 nM		
NC(=O)[C@H]1CC[C@H](CNc2nc(NCc3ccccc3F)cc(-c3ccccc3)n2)CC1	1690 nM		
O=C(O)[C@H]1CC[C@H](CNc2nc(-c3ccccc3)cc(-c3ccc(F)cc3)n2)CC1	742 nM		
Cc1cc(-c2ccccc2C)nc(NC[C@H]2CC[C@H](C(=O)O)CC2)n1	> 37000 nM		
[N-]=[N+]=Nc1cccc(-c2cc(-c3ccccc3)nc(NC[C@H]3CC[C@H](C(=O)O)CC3)n2)c1	879 nM		
NC(=O)[C@H]1CC[C@H](CNc2nc(NCc3cccc(S(N)(=O)=O)c3)cc(-c3ccccc3)n2)CC1	7610 nM		
NC(=O)[C@H]1CC[C@H](CNc2nc(NCc3ccccc3Cl)cc(-c3ccccc3)n2)CC1	6940 nM		
COc1cccc(-c2cc(C)nc(NC[C@H]3CC[C@H](C(=O)O)CC3)n2)c1	> 37000 nM		
Cc1cc(-c2ccc(Cl)cc2)nc(NC[C@H]2CC[C@H](C(=O)O)CC2)n1	2600 nM		
Cc1cc(-c2ccccc2)nc(NCc2ccc(C(=O)O)cc2)n1	15400 nM		
Cc1ccc(CNc2cc(-c3ccccc3)nc(NC[C@H]3CC[C@H](C(N)=O)CC3)n2)cc1	2180 nM		
NC(=O)[C@H]1CC[C@H](CNc2nc(NCc3ccc(F)cc3)cc(-c3ccccc3)n2)CC1	2430 nM		
NC(=O)[C@H]1CC[C@H](CNc2nc(NCc3cccc(Cl)c3)cc(-c3ccccc3)n2)CC1	2760 nM		
COc1ccc(CNc2cc(-c3ccccc3)nc(NC[C@H]3CC[C@H](C(N)=O)CC3)n2)cc1	5040 nM		
COc1ccccc1CNc1cc(-c2ccccc2)nc(NC[C@H]2CC[C@H](C(N)=O)CC2)n1	8860 nM		
Cc1cc(-c2ccc(F)cc2)nc(NC[C@H]2CC[C@H](C(=O)O)CC2)n1	8400 nM		
O=C(O)[C@H]1CC[C@H](CNc2nccc(-c3ccccc3)n2)CC1	8700 nM		
O=C(O)[C@H]1CC[C@H](CNc2nc(-c3ccccc3)cc(-c3cccnc3)n2)CC1	1200 nM		
COc1ccccc1-c1cc(C)nc(NC[C@H]2CC[C@H](C(=O)O)CC2)n1	> 37000 nM		
Cc1cccc(CNc2cc(-c3ccccc3)nc(NC[C@H]3CC[C@H](C(N)=O)CC3)n2)c1	1680 nM		
Cc1cc(-c2ccccc2)nc(SCc2ccccc2)n1	> 37000 nM		
Cc1cc(-c2ccccc2)nc(S(=O)(=O)Cc2ccc(C(=O)O)cc2)n1	> 37000 nM		
O=C(O)[C@H]1CC[C@H](CNc2nc(-c3ccccc3)cc(-c3ccc([N+](=O)[O-])cc3)n2)CC1	2190 nM		
Cc1ccccc1-c1cc(-c2ccccc2)nc(NC[C@H]2CC[C@H](C(=O)O)CC2)n1	673 nM		

More lines, main results first:

IC50 [1]	Structure (SMILES)	IC50 [2, 3]	IC50 ([2]; hct-116)
448 nM	CNC(=O)[C@H]1CC[C@H](CNc2nc(NCc3ccccc3)cc(-c3ccccc3)n2)CC1	9260 nM	
483 nM	O=C(O)[C@H]1CC[C@H](CNc2nc(-c3ccccc3)cc(-c3cccc(Cl)c3)n2)CC1		
109 nM	NC(=O)[C@H]1CC[C@H](CNc2nc(NCc3ccccc3)cc(-c3cccnc3)n2)CC1	> 10000 nM	
46 nM	NC(=O)[C@H]1CC[C@H](CNc2nc(NCc3ccccc3)cc(-c3ccccc3F)n2)CC1	> 10000 nM	
491 nM	NC(=O)[C@H]1CC[C@H](CNc2nc(NCc3ccccc3)cc(-c3ccoc3)n2)CC1	8750 nM	
82 nM	NC(=O)[C@H]1CC[C@H](CNc2nc(NCc3ccccc3)cc(-c3ccc4[nH]ccc4c3)n2)CC1	5640 nM	
127 nM	NC(=O)[C@H]1CC[C@H](CNc2nc(NCc3ccccc3)cc(-c3ccccc3)n2)CC1	9580 nM	
59 nM	CC(=O)Nc1ccc(-c2cc(NCc3ccccc3)nc(NC[C@H]3CC[C@H](C(N)=O)CC3)n2)cc1	4310 nM	
474 nM	NC(=O)[C@H]1CC[C@H](CNc2nc(NCc3cccc(F)c3)cc(-c3ccccc3)n2)CC1		
300 nM	O=C(O)[C@H]1CC[C@H](CNc2nc(-c3ccccc3)cc(-c3ccccc3)n2)CC1		
201 nM	O=C(O)[C@H]1CC[C@H](CNc2nc(-c3ccccc3)cc(-c3cccc([N+](=O)[O-])c3)n2)CC1		
87 nM	CC(=O)c1cccc(-c2cc(NCc3ccccc3)nc(NC[C@H]3CC[C@H](C(N)=O)CC3)n2)c1	6550 nM	
299 nM	NC(=O)[C@H]1CC[C@H](CNc2nc(NCc3ccccc3)cc(-c3ccc(F)cc3)n2)CC1	> 10000 nM	
552 nM	O=C(O)[C@H]1CC[C@H](CNc2nc(-c3ccccc3)cc(-c3cccc(F)c3)n2)CC1		
221 nM	O=C(O)[C@H]1CC[C@H](CNc2nc(-c3ccccc3)cc(-c3ccc(Cl)cc3)n2)CC1		
149 nM	COc1cccc(-c2cc(NCc3ccccc3)nc(NC[C@H]3CC[C@H](C(N)=O)CC3)n2)c1	6660 nM	
61 nM	NC(=O)[C@H]1CC[C@H](CNc2nc(NCc3ccccc3)cc(-c3cc4ccccc4o3)n2)CC1	4640 nM	

IC50 [1]	Structure (SMILES)	IC50 [2, 3]	IC50 ([2]; hct-116)
102 nM	CC(=O)c1ccc(-c2cc(NCc3ccccc3)nc(NC[C@H]3CC[C@H](C(N)=O)CC3)n2)cc1	> 10000 nM	
141 nM	O=C(O)[C@H]1CC[C@H](CNc2nc(-c3ccccc3)cc(-c3ccccc3F)n2)CC1		
27 nM	O=C(O)[C@H]1CC[C@H](CNc2nc(NCc3ccccc3)cc(-c3ccccc3)n2)CC1	> 20000 nM	
74 nM	NC(=O)[C@H]1CC[C@H](CNc2nc(NCc3ccccc3)cc(-c3csc4ccccc34)n2)CC1	5820 nM	
116 nM	CS(=O)(=O)c1cccc(-c2cc(-c3ccccc3)nc(NC[C@H]3CC[C@H](C(=O)O)CC3)n2)c1		
183 nM	Cc1cccc(-c2cc(NCc3ccccc3)nc(NC[C@H]3CC[C@H](C(N)=O)CC3)n2)c1	4160 nM	
89 nM	NC(=O)[C@H]1CC[C@H](CNc2nc(NCc3ccccc3)cc(-c3ccc(CO)cc3)n2)CC1	7890 nM	
135 nM	NC(=O)[C@H]1CC[C@H](CNc2nc(NCc3ccccc3)cc(-c3cccc(CO)c3)n2)CC1	> 10000 nM	
133 nM	CS(=O)(=O)NC(=O)[C@H]1CC[C@H](CNc2nc(NCc3ccccc3)cc(-c3ccccc3)n2)CC1	> 20000 nM	
106 nM	NC(=O)[C@H]1CC[C@H](CNc2nc(NCc3ccccc3)cc(-c3cccc(O)c3)n2)CC1	> 10000 nM	
264 nM	O=C(NS(=O)(=O)C(F)(F)F)[C@H]1CC[C@H](CNc2nc(NCc3ccccc3)cc(-c3ccccc3)n2)CC1	> 20000 nM	
543 nM	COc1cccc(-c2cc(-c3ccccc3)nc(NC[C@H]3CC[C@H](C(=O)O)CC3)n2)c1		
112 nM	Nc1ccc(-c2cc(-c3ccccc3)nc(NC[C@H]3CC[C@H](C(=O)O)CC3)n2)cc1		
36 nM	O=C(O)[C@H]1CC[C@H](CNc2nc(Nc3ccccc3)cc(-c3ccccc3)n2)CC1		
150 nM	O=C(O)[C@H]1CC[C@H](CNc2nc(-c3ccccc3)cc(-c3ccc4[nH]ccc4c3)n2)CC1		
570 nM	O=C(O)[C@H]1CC[C@H](CNc2nc(-c3ccccc3)cc(-c3ccco3)n2)CC1		
60 nM	Nc1ccc(-c2cc(-c3ccccc3)nc(NC[C@H]3CC[C@H](C(=O)O)CC3)n2)cc1[N+](=O)[O-]		
